Measured values from PMC7730182, “Synthesis and in Silico Modelling of the Potential Dual Mechanistic Activity of Small Cationic Peptides Potentiating the Antibiotic Novobiocin against Susceptible and Multi-Drug Resistant Escherichia coli” (International Journal of Molecular Sciences, 2020).
Where no end group is shown, it is not given here.

Legend:
[1] = tested on: Staphylococcus aureus NCTC 12981; assay: microbe, parasite or virus in culture; format: cell-based; conditions: for MIC: Staphylococcus aureus, NCTC12981, compound alone, broth microdilution, Iso-Sensitest Broth, range 128–0 μg/mL, 5 × 10^5 CFU/mL, visual read-out, duplicate, read-out: MIC, S. aureus NCTC 12981
Experimental: (§1) The Minimum Inhibitory Concentrations (MIC) of compounds 1–27 were evaluated through a broth microdilution assay against susceptible strains of Escherichia coli (Gram–negative) and Staphylococcus aureus (Gram-positive).
(§2) The antibacterial activity of the peptides and peptide/antibiotic combinations were tested by the broth microdilution assay according to [24]. Escherichia coli NCTC 10,418 and Staphylococcus aureus NCTC 12,981 were obtained from the National Collection of Type Cultures, UK. Escherichia coli G69 was a clinical isolate as previously described.
(§3) Briefly, all bacterial strains were cultured on nutrient agar (Sigma-Aldrich, Gillingham, UK) plates and incubated for 24 h at 37 °C prior to MIC determination. In addition, known quantities of each test sample were dissolved in DMSO and then diluted in ISB (Iso- Sensitest Broth, Oxoid, Basingstoke, UK) to give a range concentration of 128–0 μg/mL, unless stated differently. […] Finally, the overnight cultures of each of the tested strains were suspended to an inoculum density of approximately 1.0 × 10^8 CFU/mL in phosphate buffered saline (PBS), consisting of 137 mM NaCl, 3 mM KCl, 8 mM Na2HPO4, and […] (Oxoid, Basingstoke, UK). The cell suspensions were standardized by adjusting the optical density to 0.1 at 600 nm (Thermo Scientific UV-Vis Spectrophotometer, Abingdon, UK) before being diluted 1:100 in ISB prior to inoculation
(§4) The assays were performed by microdilution using 96-well microtiter plates with a final inoculum of 5 × 10^5 CFU/mL and each sample was tested in duplicate in at least two independent experiments in order to confirm the reliability of the data. Results were determined by visual inspection of the wells and the presence of an evident opaque medium or white pellets were indicative of bacterial growth. The MIC values were recorded as the lowest concentration at which no bacterial growth was detected.
(§5) Table S4. Minimum inhibitory concentration (MIC) of synthesised peptides and of reference antibiotics
(§6) novobiocin and norfloxacin.

[2] = tested on: Escherichia coli NCTC 10418; assay: microbe, parasite or virus in culture; format: cell-based; conditions: for MIC: Escherichia coli, NCTC10418, compound alone, broth microdilution, Iso-Sensitest Broth, range 128–0 μg/mL, 5 × 10^5 CFU/mL, visual read-out, duplicate, read-out: MIC, E. coli NCTC 10418
Experimental: as §1, §2, §3, §4, §5, §6

[3] = tested on: susceptible E. coli 10418; assay: Norfloxacin potentiation assay (MIC of norfloxacin with fixed concentration of peptide or PAβN); format: cell-based, Escherichia coli; conditions: broth microdilution, duplicate; for MIC of norfloxacin, E. coli 10418, +128 μg/mL of peptide: fixed 128 μg/mL peptide
Experimental: (§7) In order to gather more evidence on the potential mechanisms of action, the effects of the peptides in combination with the quinolone antibiotic norfloxacin were determined. Norfloxacin is active against Gram-negative bacteria, generally achieving entry via porin channels, but is also able to enter the bacterial cell via the membrane in porin-deficient mutants. Therefore, any membrane permeability mechanism would not be expected to have a significant effect on improving the activity of norfloxacin in porin-competent strains. This is indeed what was observed (Table S5), which added weight to our hypothesis that our very short peptides may be acting as membrane permeability enhancers for novobiocin.
as §2
as §3, with “inoculation […]” for “inoculation”
(§8) The assays were performed by microdilution using 96-well microtiter plates with a final inoculum of 5 × 10^5 CFU/mL and each sample was tested in duplicate in at least two independent experiments in order to confirm the reliability of the data. Results were determined by visual inspection of the wells and the presence of an evident opaque medium or white pellets were indicative of bacterial growth. The MIC values were recorded as the lowest concentration at which no bacterial growth was detected. […]
(§9) potentiating novobiocin. Assays were performed at fixed concentration of 128 μg/mL against susceptible E. coli 10418 and multidrug resistant clinical isolate E. coli G69. Potentiation assay for norfloxacin was also performed in presence of 64 μg/mL of RND efflux pump inhibitor PAβN. All tests were repeated in […]
(§10) Compound Sequence MIC of norfloxacin (μg/mL) […]
(§11) inhibitor PaβN but no potentiation was observed, so the assay was not repeated at lower concentrations.

[4] = tested on: multidrug resistant clinical isolate E. coli G69; assay: as above; format: cell-based, Escherichia coli; conditions: broth microdilution, duplicate; for MIC of norfloxacin, E. coli G69, +128 μg/mL of peptide: fixed 128 μg/mL peptide
Experimental: as §7, §2
as §3, with “inoculation […]” for “inoculation”
as §8, §9, §10, §11

[5] = tested on: multi-drug resistant clinical isolate E. coli G69; assay: Novobiocin potentiation assay (MIC of novobiocin with fixed concentration of peptide or PAβN); format: cell-based, Escherichia coli; design: key to MIC of Novobiocin, E. coli G69, +32 μg/mL added peptide / MIC of Novobiocin, E. coli G69, +128 μg/mL added peptide: Non potentiating (NP) indicated no reduction in the MIC of novobiocin was observed; conditions: for potentiation of novobiocin against multi-drug resistant E. coli, result in words: E. coli G69, added peptide; for MIC of Novobiocin, E. coli G69, +32 μg/mL added peptide / MIC of Novobiocin, E. coli G69, +128 μg/mL added peptide: Iso-Sensitest Broth, 5 × 10^5 CFU/mL, visual read-out; for MIC of Novobiocin, E. coli G69, +32 μg/mL added peptide: fixed 32 μg/mL peptide; for MIC of Novobiocin, E. coli G69, +128 μg/mL added peptide: fixed 128 μg/mL peptide
Experimental: (§12) The peptides were also tested in combination with antibiotics novobiocin and norfloxacin. Novobiocin has low efficacy against Gram-negative bacteria due to its hydrophobicity, giving limited cell permeability.
as §2, §3, §4

[6] = tested on: susceptible E. coli NCTC 10418; assay: as above; format: cell-based, Escherichia coli; design: key to MIC of Novobiocin, E. coli NCTC 10418, +128 μg/mL added peptide / MIC of Novobiocin, E. coli NCTC 10418, +32 μg/mL added peptide: Non potentiating (NP) indicated no reduction in the MIC of novobiocin was observed; conditions: for MIC of Novobiocin, E. coli NCTC 10418, +32 μg/mL added peptide / MIC of Novobiocin, E. coli NCTC 10418, +128 μg/mL added peptide: Iso-Sensitest Broth, 5 × 10^5 CFU/mL, visual read-out; for MIC of Novobiocin, E. coli NCTC 10418, +32 μg/mL added peptide: fixed 32 μg/mL peptide; for MIC of Novobiocin, E. coli NCTC 10418, +128 μg/mL added peptide: fixed 128 μg/mL peptide; for potentiation of the MIC of novobiocin, result in words: added peptide, wording covers susceptible and multi-drug resistant strain
Experimental: as §12, §2, §3, §4

Row | Compound | MIC of Novobiocin, E. coli G69, +128 μg/mL added peptide ([5]; broth microdilution, duplicate) | MIC of norfloxacin, E. coli 10418, +128 μg/mL of peptide [3] [µg/mL] | MIC of norfloxacin, E. coli G69, +128 μg/mL of peptide [4] [µg/mL] | MIC of Novobiocin, E. coli NCTC 10418, +32 μg/mL added peptide ([6]; broth microdilution, duplicate) [µg/mL] | MIC of Novobiocin, E. coli NCTC 10418, +128 μg/mL added peptide ([6]; broth microdilution, duplicate) | potentiation of the MIC of novobiocin, result in words [6] | also measured
1 | WRWRW-NH2 [Compound 6] | – | – | – | – | – | – | MIC, S. aureus NCTC 12981 ([1]; NCTC 12981, 24 h): 64 µg/mL; MIC, E. coli NCTC 10418 ([2]; NCTC 10418, 24 h): 64 µg/mL
2 | CCn1cc(C(=O)O)c(=O)c2cc(F)c(N3CCNCC3)cc21 [Norfloxacin, reference compound] | – | – | – | – | – | – | MIC ([3]; Escherichia coli, E.COLI10418, norfloxacin alone): 0.062 µg/mL; MIC ([4]; Escherichia coli, norfloxacin alone): > 128 µg/mL; MIC [1]: 2 µg/mL; MIC [2]: 0.062 µg/mL
3 | CO[C@@H]1[C@@H](OC(N)=O)[C@@H](O)[C@H](Oc2ccc3c(O)c(NC(=O)c4ccc(O)c(CC=C(C)C)c4)c(=O)oc3c2C)OC1(C)C [Novobiocin] | – | – | – | – | – | – | MIC ([5]; Escherichia coli, novobiocin alone, no peptide, broth microdilution, duplicate): > 128 µg/mL; MIC ([6]; Escherichia coli, NCTC10418, novobiocin alone, no peptide, broth microdilution, duplicate): 32 µg/mL; MIC [1]: 4 µg/mL; MIC [2]: 32 µg/mL
4 | WKWKW [Compound 15, short cationic peptide WKWKW, amidated at the C-terminus] | 8 µg/mL | 0.125 | > 128 | 8 | 4 µg/mL | – | potentiation of novobiocin against multi-drug resistant E. coli, result in words [5]: restore the susceptibility; MIC of Novobiocin, E. coli G69, +32 μg/mL added peptide ([5]; broth microdilution, duplicate): 128 µg/mL
5 | WKPLPPR [Compound 24, proline-rich cationic peptide WKPLPPR, amidated at the C-terminus] | NP | 0.062 | > 128 | – | NP | no synergism was observed | –
6 | FKPLPPH [Compound 25, proline-rich peptide FKPLPPH, C-terminal amide; commercial sample from ThermoFisher] | NP | 0.062 | > 128 | – | 8 µg/mL | Potentiation was restored but again only against susceptible strain | –
7 | RPRRPRLPW-NH2 [Compound 27] | 16 µg/mL | 0.062 | > 128 | 8 | 0.125 µg/mL | – | potentiation of novobiocin against multi-drug resistant E. coli, result in words [5]: restore the susceptibility; MIC of Novobiocin, E. coli G69, +32 μg/mL added peptide ([5]; broth microdilution, duplicate): 16 µg/mL; fold reduction in the MIC of novobiocin against the susceptible strain ([6]; E. coli 10418, added peptide): 256 fold
8 | WRWR [Compound 4, short cationic peptide WRWR, amidated at the C-terminus] | NP | 0.062 | > 128 | 32 | 2 µg/mL | – | –
9 | RPWPPR [Compound 23, proline-rich cationic peptide RPWPPR, amidated at the C-terminus] | NP | 0.062 | > 128 | – | 4 µg/mL | shows potentiation, but only against the susceptible strain | –
